Experimental data published in ChEMBL document CHEMBL4673324, “Xanthones for melanogenesis inhibition: Molecular docking and QSAR studies to understand their anti-tyrosinase activity” (Bioorg Med Chem, 2021).

B1: Tyrosinase (Homo sapiens), P14679 (protein)
chain: MLLAVLYCLLWSFQTSAGHFPRACVSSKNLMEKECCPPWSGDRSPCGQLSGRGSCQNILLSNAPLGPQFPFTGVDDRESWPSVFYNRTCQCSGNFMGFNCGNCKFGFWGPNCTERRLLVRRNIFDLSAPEKDKFFAYLTLAKHTISSDYVIPIGTYGQMKNGSTPMFNDINIYDLFVWMHYYVSMDALLGGSEIWRDIDFAHEAPAFLPWHRLFLLRWEQEIQKLTGDENFTIPYWDWRDAEKCDICTDEYMGGQHPTNPNLLSPASFFSSWQIVCSRLEEYNSHQSLCNGTPEGPLRRNPGNHDKSRTPRLPSSADVEFCLSLTQYESGSMDKAANFSFRNTLEGFASPLTGIADASQSSMHNALHIYMNGTMSQVQGSANDPIFLLHHAFVDSIFEQWLRRHRPLQEVYPEANAPIGHNRESYMVPFIPLYRNGDFFISSKDLGYDYSYLQDSDPDSFQDYIKSYLEQASRIWSWLLGAAMVGAVLTALLAGLVSLLCRHKRKQLPEEKQPLLMEKEDYHSLYQSHL

Assays:
[1] = biological target: Mushroom tyrosinase (Agaricus bisporus, UniProt O42713+Q00024+C7FF04+C7FF05); test: Inhibition of mushroom tyrosinase using tyrosine as substrate incubated for 20 mins followed by substrate addition and measured every 10 mins for 30 mins
[2] = Inhibition of Elastase (unknown origin) using N-methoxysuccinyl-Ala-Ala-Pro-Val-p-nitroanilide as substrate incubated for 20 mins followed by substrate addition and measured after 40 mins; design: species or system Homo sapiens
[3] = compound: Cc1cc(O)c(O)c2oc3cc(O)ccc3c(=O)c12; test: Uncompetitive inhibition of Tyrosinase (unknown origin) assessed as maximal velocity at 13.2 uM using tyrosine as substrate incubated for 20 mins followed by substrate addition and measured every 10 mins for 30 mins by Lineweaver-Burk plot analysis (reference value: […] +/- […] /min); conditions: Homo sapiens, time 50.0 min
[4] = compound: COc1cc(C)c2c(=O)c3ccccc3oc2c1OC; test: Uncompetitive inhibition of Tyrosinase (unknown origin) assessed as maximal velocity at 16 uM using tyrosine as substrate incubated for 20 mins followed by substrate addition and measured every 10 mins for 30 mins by Lineweaver-Burk plot analysis (reference value: […] +/- […] /min); conditions: Homo sapiens, time 50.0 min
[5] = compound: Cc1cc(O)c(O)c2oc3cc(O)ccc3c(=O)c12; test: Uncompetitive inhibition of Tyrosinase (unknown origin) assessed as Michaelis-Menten constant at 3.3 uM using tyrosine as substrate incubated for 20 mins followed by substrate addition and measured every 10 mins for 30 mins by Lineweaver-Burk plot analysis (reference value: […] +/- […] mM); conditions: Homo sapiens, time 50.0 min
[6] = compound: Cc1cc(O)c(O)c2oc3cc(O)ccc3c(=O)c12; test: Uncompetitive inhibition of Tyrosinase (unknown origin) assessed as Michaelis-Menten constant at 13.2 uM using tyrosine as substrate incubated for 20 mins followed by substrate addition and measured every 10 mins for 30 mins by Lineweaver-Burk plot analysis (reference value: […] +/- […] mM); conditions: Homo sapiens, time 50.0 min
[7] = compound: COc1cc(C)c2c(=O)c3ccccc3oc2c1OC; test: Uncompetitive inhibition of Tyrosinase (unknown origin) assessed as maximal velocity at 8 uM using tyrosine as substrate incubated for 20 mins followed by substrate addition and measured every 10 mins for 30 mins by Lineweaver-Burk plot analysis (reference value: […] +/- […] /min); conditions: Homo sapiens, time 50.0 min
[8] = compound: Cc1cc(O)c(O)c2oc3cc(O)ccc3c(=O)c12; test: Uncompetitive inhibition of Tyrosinase (unknown origin) assessed as Michaelis-Menten constant at 1.65 uM using tyrosine as substrate incubated for 20 mins followed by substrate addition and measured every 10 mins for 30 mins by Lineweaver-Burk plot analysis (reference value: […] +/- […] mM); conditions: Homo sapiens, time 50.0 min
[9] = compound: COc1cc(C)c2c(=O)c3ccccc3oc2c1OC; test: Uncompetitive inhibition of Tyrosinase (unknown origin) assessed as Michaelis-Menten constant at 2 uM using tyrosine as substrate incubated for 20 mins followed by substrate addition and measured every 10 mins for 30 mins by Lineweaver-Burk plot analysis (reference value: […] +/- […] mM); conditions: Homo sapiens, time 50.0 min
[10] = compound: COc1cc(C)c2c(=O)c3ccccc3oc2c1OC; test: Uncompetitive inhibition of Tyrosinase (unknown origin) assessed as Michaelis-Menten constant at 8 uM using tyrosine as substrate incubated for 20 mins followed by substrate addition and measured every 10 mins for 30 mins by Lineweaver-Burk plot analysis (reference value: […] +/- […] mM); conditions: Homo sapiens, time 50.0 min
[11] = compound: COc1cc(C)c2c(=O)c3ccccc3oc2c1OC; test: Uncompetitive inhibition of Tyrosinase (unknown origin) assessed as Michaelis-Menten constant at 16 uM using tyrosine as substrate incubated for 20 mins followed by substrate addition and measured every 10 mins for 30 mins by Lineweaver-Burk plot analysis (reference value: […] +/- […] mM); conditions: Homo sapiens, time 50.0 min
[12] = compound: Cc1cc(O)c(O)c2oc3cc(O)ccc3c(=O)c12; test: Uncompetitive inhibition of Tyrosinase (unknown origin) assessed as maximal velocity at 6.60 uM using tyrosine as substrate incubated for 20 mins followed by substrate addition and measured every 10 mins for 30 mins by Lineweaver-Burk plot analysis (reference value: […] +/- […] /min); conditions: Homo sapiens; dose 6.6 µM, time 50.0 min
[13] = compound: Cc1cc(O)c(O)c2oc3cc(O)ccc3c(=O)c12; test: Uncompetitive inhibition of Tyrosinase (unknown origin) assessed as maximal velocity at 3.30 uM using tyrosine as substrate incubated for 20 mins followed by substrate addition and measured every 10 mins for 30 mins by Lineweaver-Burk plot analysis (reference value: […] +/- […] /min); conditions: Homo sapiens; dose 3.3 µM, time 50.0 min
[14] = compound: COc1cc(C)c2c(=O)c3ccccc3oc2c1OC; test: Uncompetitive inhibition of Tyrosinase (unknown origin) assessed as Michaelis-Menten constant at 4 uM using tyrosine as substrate incubated for 20 mins followed by substrate addition and measured every 10 mins for 30 mins by Lineweaver-Burk plot analysis (reference value: […] +/- […] mM); conditions: Homo sapiens, time 50.0 min
[15] = compound: COc1cc(C)c2c(=O)c3ccccc3oc2c1OC; test: Uncompetitive inhibition of Tyrosinase (unknown origin) assessed as maximal velocity at 4 uM using tyrosine as substrate incubated for 20 mins followed by substrate addition and measured every 10 mins for 30 mins by Lineweaver-Burk plot analysis (reference value: […] +/- […] /min); conditions: Homo sapiens, time 50.0 min
[16] = compound: COc1cc(C)c2c(=O)c3ccccc3oc2c1OC; test: Uncompetitive inhibition of Tyrosinase (unknown origin) assessed as maximal velocity at 2 uM using tyrosine as substrate incubated for 20 mins followed by substrate addition and measured every 10 mins for 30 mins by Lineweaver-Burk plot analysis (reference value: […] +/- […] /min); conditions: Homo sapiens, time 50.0 min
[17] = compound: Cc1cc(O)c(O)c2oc3cc(O)ccc3c(=O)c12; test: Uncompetitive inhibition of Tyrosinase (unknown origin) assessed as maximal velocity at 1.65 uM using tyrosine as substrate incubated for 20 mins followed by substrate addition and measured every 10 mins for 30 mins by Lineweaver-Burk plot analysis (reference value: […] +/- […] /min); conditions: Homo sapiens, time 50.0 min
[18] = compound: Cc1cc(O)c(O)c2oc3cc(O)ccc3c(=O)c12; test: Uncompetitive inhibition of Tyrosinase (unknown origin) assessed as Michaelis-Menten constant at 6.6 uM using tyrosine as substrate incubated for 20 mins followed by substrate addition and measured every 10 mins for 30 mins by Lineweaver-Burk plot analysis (reference value: […] +/- […] mM); conditions: Homo sapiens, time 50.0 min

Molecule	IC50 [1] [µM]	other results
COc1cc(C=O)c2c(=O)c3ccccc3oc2c1OC	29.13	
O=Cc1cc(O)c(O)c2oc3ccccc3c(=O)c12	89.37	
O=c1c2ccccc2oc2cc(O)ccc12	9.26	
COc1cccc2oc3ccccc3c(=O)c12	5.14	
O=c1c2ccccc2oc2c(O)c(O)ccc12 [3,4-DIHYDROXYXANTHONE]	5.12	
COc1cc(C=O)c2c(=O)c3ccc(O)cc3oc2c1OC	3.16	
O=c1c2ccccc2oc2cc(O)c(O)cc12	5.7	
Cc1cc(O)c(O)c2oc3cc(O)ccc3c(=O)c12	3.28	
O=c1c2cc(O)ccc2oc2cccc(O)c12	4.52	
COc1c(O)cc2oc3ccccc3c(=O)c2c1O	3.01	
COc1ccc2c(=O)c3c(C)c(Cl)c(OC)c(OC)c3oc2c1	1.9	
COc1ccc2c(=O)c3ccccc3oc2c1	5.14	
COc1ccc2oc3ccccc3c(=O)c2c1	8.47	
O=c1c2ccccc2oc2ccc(O)cc12	5.6	
COc1cc2oc3ccccc3c(=O)c2cc1OC	8.29	
O=c1c2ccccc2oc2ccc(O)c(O)c12	7.8	

Molecule	IC50 [1] [µM]	other results
O=c1c2ccccc2oc2ccccc12 [XANTHONE]	8.84	
COc1ccc2c(=O)c3c(C)c(Br)c(OC)c(OC)c3oc2c1	5.57	
COc1cc(C)c2c(=O)c3ccccc3oc2c1OC	2	
COc1ccc2c(=O)c3c(C)cc(OC)c(OC)c3oc2c1	2.24	
O=c1c2ccccc2oc2c(O)cccc12	8.46	
Cc1cc(O)c(O)c2oc3ccccc3c(=O)c12	8.93	
COc1ccc2c(=O)c3ccccc3oc2c1OC	5.12	
O=c1c2ccc(O)cc2oc2cc(O)ccc12	4.42	IC50 [2]: 91.8 µM
COc1cccc2c(=O)c3ccccc3oc12	5.33	
COc1cc(C(Br)Br)c2c(=O)c3ccccc3oc2c1OC	3.37	
COc1c(O)ccc2c(=O)c3ccccc3oc12	3.81	
H-MAAPVCK-OH		IC50 [2]: 0.26 µM
COc1ccc2oc3ccccc3c(=O)c2c1OC	4.02	
COc1ccc2c(=O)c3ccccc3oc2c1O	5.2	
B1		Vmax [3]: 0.0028 min⁻¹; Vmax [4]: 0.0019 min⁻¹; Km [5]: 51 µM; Km [6]: 28 µM; Vmax [7]: 0.0025 min⁻¹; Km [8]: 63 µM; Km [9]: 53 µM; Km [10]: 27 µM; Km [11]: 26 µM; Vmax [12]: 0.0032 min⁻¹; Vmax [13]: 0.0035 min⁻¹; Km [14]: 41 µM; Vmax [15]: 0.0031 min⁻¹; Vmax [16]: 0.0036 min⁻¹; Vmax [17]: 0.0037 min⁻¹; Km [18]: 46 µM
